In patent US20250312336A1, “Compositions And Methods For Treating Cancer With Calcium Channel Inhibitors” (Institute for Cancer Research d/b/a The Research Institute …, priority 2024, published 2025):
Entries after “also recorded” stand apart in the source; their conditions may differ.

What was measured:
[1] = test system: Panc-1 cells; experiment: Viability of Panc-1 cells under HDL receptor blockade; type: cell-based, human; details: HDL receptor inhibitor, LDS
Method: For direct enumeration of viable cells in co-cultures with CAFs, we seeded CAFs at 12,000 cells per well in 96-well plate (#3603, Corning) in DMEM/10% FBS. The next day, the media was replaced with 10%/LDS/DMEM and 4,000 DsRed-tagged Panc-1 cells were plated on the top of CAFs at 3:1 ratio. After 96 hours, fluorescence of viable DsRed-positive Panc-1 cells was measured using Spark Multimode Microplate Reader (Tecan) with parameters set at 540 nm for excitation and 590 nm for detection. To measure the dynamics of cell proliferation in vitro, we used xCELLigence E-Plate (ACEA BioSciences,) as per the manufacturer's recommended protocol. Impedance values were recorded every hour. Data was graphed using GraphPad Prism software.

[2] = test system: PtdSer externalization in KPC tumors; experiment: Phosphatidylserine imaging in autochthonous KPC pancreatic tumors; type: in vivo, mouse; details: KPC mice
[3] = test system: KPC3 pancreatic tumors; experiment: Orthotopic syngeneic KPC3 pancreatic tumor growth; type: in vivo, mouse; details: oral gavage 5 days/week for 3 weeks; niclosamide 150 mg/kg, clofazimine 50 mg/kg
Method: Syngeneic 5×10^5 KPC3 cells were injected into the tail of pancreas of anesthetized C57B1/6J mice. […] Mice were kept under defined-flora pathogen-free conditions at the AAALAC-approved Animal Facility of the Fox Chase Cancer Center, Philadelphia, PA. Mice of both genders, equally distributed, were used for the experiments.

[4] = test system: OT-1 CTLs; experiment: Trogocytosis assay of DiD-labeled CAFs co-cultured with OT-1 CTLs; type: cell-based, mouse; details: 12 h co-culture; niclosamide 1 μM, clofazimine 1 μM, anti-TIM3 Ab 4 μg/ml, 25-hydroxycholesterol 4 μM
Method: For trogocytosis between OT-1 and CAF cells, T cells were isolated from splenocytes of OTI mice (strain 021880, The Jackson Laboratory) and stimulated with OVA257-264 (1 μg/ml) for 24 hours as described.
Cholesterol abundance in cell membranes was determined with Cholesterol Detection Assay Kit (Cayman, cat #10009779). Dissociated cells were fixed with fixative solution for 10 minutes, washed and labeled with Filipin III as per the manufacturer's instructions. Labeling with Filipin III was done by incubating in the dark for 30 minutes. After two washes for 5 minutes each, labeling was analyzed by flow cytometry (excitation: 340-380, emission: 385-470). The IFN-γ, Granzyme B and Foxp3 were detected using Foxp3/Transcription Factor Staining Buffer (00-5523-00, Thermo Fisher Scientific). Cells were stained for cell surface markers at 4° C. for 30 min followed by fixation and permeabilization buffer for 30 mins and two washes with permeabilization buffer and incubation with the indicated antibodies for 30 mins, washed with PBS twice followed by flow cytometry analysis.

[5] = test system: TMEM16F-dependent syncytia induced by SARS-COV-2; details: previous studies; cited from earlier work
[6] = target: T1, ANO6 (Homo sapiens, UniProt Q4KMQ2); experiment: PtdSer externalization (annexin XII) in CAFs co-cultured with DsRed-tagged Panc-1 cells; type: cell-based; design: this increase was observed only in control CAFs (ANO6-proficient) engaged in physical contacts with DsRed-tagged Panc-1 cells; endogenous in cells; host or cells: human CAFs in co-culture with DsRed-tagged Panc-1 cells; details: BTP2 10 μM; clofazimine 1 μM; niclosamide
T1 sequence (Q4KMQ2 1-910): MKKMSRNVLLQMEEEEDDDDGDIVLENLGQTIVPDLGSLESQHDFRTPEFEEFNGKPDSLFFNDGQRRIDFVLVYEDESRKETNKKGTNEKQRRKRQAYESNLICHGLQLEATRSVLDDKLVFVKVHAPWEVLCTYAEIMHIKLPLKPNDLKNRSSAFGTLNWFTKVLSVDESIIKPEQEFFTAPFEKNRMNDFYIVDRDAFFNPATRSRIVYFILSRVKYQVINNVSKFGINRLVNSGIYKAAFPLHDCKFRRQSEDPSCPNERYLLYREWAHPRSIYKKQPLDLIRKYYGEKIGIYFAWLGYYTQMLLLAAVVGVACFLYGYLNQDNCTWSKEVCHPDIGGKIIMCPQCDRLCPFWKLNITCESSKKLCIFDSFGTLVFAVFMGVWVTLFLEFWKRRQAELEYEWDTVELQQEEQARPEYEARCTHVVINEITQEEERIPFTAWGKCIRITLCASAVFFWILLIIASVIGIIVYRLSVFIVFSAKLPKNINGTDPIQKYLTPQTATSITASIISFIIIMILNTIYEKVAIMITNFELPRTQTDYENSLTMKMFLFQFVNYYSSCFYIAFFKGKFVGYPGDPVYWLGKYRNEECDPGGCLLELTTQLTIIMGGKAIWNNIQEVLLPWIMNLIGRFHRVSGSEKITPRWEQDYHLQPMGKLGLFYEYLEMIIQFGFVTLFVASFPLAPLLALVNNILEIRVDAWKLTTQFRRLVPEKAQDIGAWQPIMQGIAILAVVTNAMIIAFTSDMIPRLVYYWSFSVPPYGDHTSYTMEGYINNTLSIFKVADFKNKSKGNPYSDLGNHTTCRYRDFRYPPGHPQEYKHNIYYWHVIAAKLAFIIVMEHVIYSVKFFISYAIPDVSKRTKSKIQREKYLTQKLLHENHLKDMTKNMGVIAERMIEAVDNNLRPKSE
Method: (§1) CAFs were seeded in 24-well glass bottom plates (cat. #81156, Ibidi, Fitchburg, WI) at a density of 20,000 cells per well. Cells were then treated with niclosamide (1 μM) for 2 h. After one wash with FBS-free media at RT, cells were incubated with 250 μl of 1:100 annexin XII and 1:200 propidium iodide (pSIVA Abcam #ab129817), with or without 10 μM ionomycin. Cells were then incubated (5 min 37C) and imaged by fluorescence microscopy using a Nikon A1 camera (Nikon) linked to a Nikon Eclipse Ti2-E Inverted Microscope Imaging System (Nikon) for each channel. Fifteen images per well were acquired.

[7] = test system: DsRed-tagged PDAC KPC3 tumors; experiment: Intravital multiphoton imaging of BODIPY-cholesterol LDL uptake in DsRed-tagged KPC3 tumors; type: in vivo, mouse
Method: Mice with established orthotopic tumors roughly 21 days post implantation were anesthetized with 1.5-2% isoflurane/oxygen mixture maintained for the duration of imaging. Pancreatic tumors were exposed through a 1 cm incision on the left flank of the mouse placed on a 35° C. heating pad (Kent Scientific). Intensity thresholds were set up to distinguish signal from background fluorescence, and areas positive for DsRed, indicative of tumor cells, were selected for 3D confocal imaging using a 25× objective in the Leica SP8 Dive multiphoton imaging system (Leica Microsystems), prior to the intravenous administration of 150 μL of LDL carrying BODIPY-cholesterol and at 0.5, 1, 5, 16, and 19-hour interval post injection with XY resolution 0.867 um/px and Z distance 2 μm. For each time interval, 2-3 mice were imaged for 0.5-2 hours under continuous anesthesia. At the end of each imaging session, the animals were euthanized, and tissues were collected. The acquired 3D stacks were analyzed using Imaris 10.0.0 software (Oxford Instruments, UK). […] Mean intensity of cholesterol volume co-localized with tumor volume or volume outside of tumor was measured and ratio inside intensity/outside intensity was calculated. […] The volume of vesicles inside the tumor were expressed as a percentage relative to tumor volume.

[8] = test system: CAF1 fibroblasts; experiment: Western blot of signaling epitopes in CAF1 fibroblast lysates; type: cell-based, human; details: band densities relative to vehicle control
Method: Functional fibroblastic cell 3D culture units are needed to ensure the pathophysiological signal reciprocity between fibroblastic cells and self-generated ECM is sustained ex vivo. These units were generated using known methods. Briefly, confluent cultures of human pancreatic fibroblastic cells, harvested from surgical samples and immortalized via hTERT overexpression, were supplemented daily with freshly-prepared ascorbic acid (50 ug/mL) for a period lasting 5 days. The resulting fibroblastic/ECM 3D functional units were used for the phenotypic characterization of the units and to report on the pro-tumor vs. tumor-suppressive (normalized) statuses of the experimental fibroblastic/ECM units. For this, lysates obtained from the assorted units were resolved using SDS-PAGE and traits were gauged via western blot; testing for constitutive integrin and PI3K activities depicted by phosphorylated FAK and AKT respectively. Cultured cells were lysed in RIPA buffer (#24928, Santa Cruz) with phosphatase inhibitor (#1862495, Thermo Fisher Scientific) and protease inhibitors (#1861278, Thermo Fisher Scientific) on ice and cleared by centrifugation (15 min at 17,000 g). The protein concentration was measured with a Pierce BCA Protein Assay Kit (#23225, Thermo Fisher Scientific). […] The density of obtained bands was quantified with Image J software (FIJI).

[9] = target: T1, ANO6; experiment: Phosphatidylserine externalization assay in CAFs pulsed with ionomycin (annexin XII); type: cell-based; design: endogenous in cells; host or cells: human patient-derived, hTERT-immortalized pancreatic cancer-associated fibroblasts (CAFs); details: niclosamide 1 μM 2 h; ionomycin 5 minutes at 10 μM; annexin XII staining
Method: as §1

SMILES	Panc-1 viability [1]	PtdSer externalization in cytokeratin-positive cancer cells and podoplanin-positive CAFs (KL5c betabody) ([2]; two daily doses 50 mg/kg, 50 μg KL5c IV 5 hours prior to sacrifice)	PtdSer externalization in KPC tumors (PSVue-794 infrared probe) ([2]; two daily doses 50 mg/kg, probe IV 24 hours prior to sacrifice)	Detection of externalized PtdSer in PDAC using two chemically unrelated probes ([2]; two daily doses of clofazimine 50 mg/kg, KL5c betabody and PSVue-794)	Tumor weights of orthotopic syngeneic KPC3 pancreatic tumors [3]	Transfer of DiD (CAF PM uptake) from CAFs to OT-1 CTLs [4]	Formation of TMEM16F-dependent syncytia induced by SARS-COV-2 [5]	PtdSer externalization (annexin XII) in CAFs co-cultured with Panc-1 cells [6]	Cholesterol accumulation in intratumoral vesicles containing BODIPY-cholesterol ([7]; 19 hours post injection)	BODIPY-cholesterol accumulation in DsRed-tagged PDAC KPC3 cells ([7]; niclosamide-treated mice, after intravenous labeled LDL, 10, 16 and 19 hours)	Signaling: expression of indicated protein epitopes in total cellular lysates of unmodified CAF1 fibroblasts [8]	PtdSer externalization induced by ionomycin in CAFs pre-treated with inhibitor [9]
CCCCCCC1CCCC1=NNC(N)=S (stereo not shown) [BTL1]	loss of Panc-1 viability											
CC(C)/N=c1\cc2n(-c3ccc(Cl)cc3)c3ccccc3nc-2cc1Nc1ccc(Cl)cc1 [clofazimine]		blocks PtdSer externalization	blocks PtdSer externalization	completely suppressed detection of externalized PtdSer	significantly reduced tumor weights	notably suppressed the measured transfer	block formation	suppressed PtdSer externalization; also recorded: blocked				
O=C(Nc1ccc([N+](=O)[O-])cc1Cl)c1cc(Cl)ccc1O [niclosamide]					significantly reduced tumor weights	notably suppressed the measured transfer	block formation	absence of annexin XII labeling	significantly lower accumulation	suppressed BODIPY-cholesterol accumulation	suppresses signaling	did not cause externalized PtdSer; also recorded: prevents PtdSer externalization
